Data published in ChEMBL document CHEMBL1681690, “Discovery of TAK-733, a potent and selective MEK allosteric site inhibitor for the treatment of cancer” (Bioorg Med Chem Lett, 2011).
The source made the active and inactive calls. The calls are words filed in the database; no cut-off is given here.

How the values were obtained:
A-375 = assay: Cytotoxicity against human A375 cells after 72 hrs by MTS assay; conditions: A-375, 72 h
COLO 205 = assay: Cytotoxicity against human COLO205 cells after 72 hrs by MTS assay; conditions: COLO 205, 72 h
[1] = Half life in human liver microsomes; assay type: ADME, Microsome
[2] = Half life in rat liver microsomes; assay type: ADME, Microsome
[3] = target: Dual specificity mitogen-activated protein kinase kinase 1 (Homo sapiens, UniProt Q02750)
Sequence of Dual specificity mitogen-activated protein kinase kinase 1 (Q02750 whole entry): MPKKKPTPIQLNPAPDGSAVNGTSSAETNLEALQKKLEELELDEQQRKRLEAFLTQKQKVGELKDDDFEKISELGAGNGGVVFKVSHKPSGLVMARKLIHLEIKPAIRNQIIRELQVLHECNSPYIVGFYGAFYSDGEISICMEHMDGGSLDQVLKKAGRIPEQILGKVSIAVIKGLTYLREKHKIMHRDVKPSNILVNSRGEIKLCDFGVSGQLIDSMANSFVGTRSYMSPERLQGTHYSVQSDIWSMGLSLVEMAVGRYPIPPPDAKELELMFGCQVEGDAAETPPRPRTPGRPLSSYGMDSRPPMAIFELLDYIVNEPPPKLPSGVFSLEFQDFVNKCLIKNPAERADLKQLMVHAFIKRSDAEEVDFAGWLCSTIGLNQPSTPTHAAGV
Description: Inhibition of MEK1 by IMAP assay

[4] = Plasma protein binding in human; assay type: ADME, cell-free; conditions: read-out: PPB (converted)
[5] = Plasma protein binding in mouse; assay type: ADME, cell-free; conditions: read-out: PPB (converted)
[6] = Inhibition of CYP450 up to 30 uM; assay type: ADME
[7] = Clearance in mouse at 1.4 mg/kg, iv and […] mg/kg, po; assay type: ADME, organism-based; conditions: in vivo
[8] = Volume of distribution at steady state in mouse at 1.4 mg/kg, iv and […], po; assay type: ADME, organism-based; conditions: in vivo, read-out: Vdss
[9] = Mean residence time in mouse at 1.4 mg/kg, iv; assay type: ADME, organism-based; parameters: dose 1.4 mg/kg, route intravenous; conditions: in vivo
[10] = Mean residence time in mouse at […], po; assay type: ADME, organism-based; parameters: dose 7.8 mg/kg, route oral; conditions: in vivo
[11] = Oral bioavailability in mouse at […]; assay type: ADME, organism-based; conditions: in vivo
[12] = Clearance in rat at 1 mg/kg, iv and 4.2 mg/kg, po; assay type: ADME, organism-based; conditions: in vivo
[13] = Volume of distribution at steady state in rat at 1 mg/kg, iv and 4.2 mg/kg, po; assay type: ADME, organism-based; conditions: in vivo, read-out: Vdss
[14] = Mean residence time in rat at 1 mg/kg, iv; assay type: ADME, organism-based; parameters: dose 1 mg/kg, route intravenous; conditions: in vivo
[15] = Mean residence time in rat at 4.2 mg/kg, po; assay type: ADME, organism-based; parameters: dose 4.2 mg/kg, route oral; conditions: in vivo
[16] = Oral bioavailability in rat at 4.2 mg/kg; assay type: ADME, organism-based; conditions: in vivo
[17] = Clearance in dog at 0.6 mg/kg, iv and 2.3 mg/kg, po; assay type: ADME, organism-based, Canis lupus familiaris; conditions: in vivo
[18] = Volume of distribution at steady state in dog at 0.6 mg/kg, iv and 2.3 mg/kg, po; assay type: ADME, organism-based, Canis lupus familiaris; conditions: in vivo, read-out: Vdss
[19] = Mean residence time in dog at 0.6 mg/kg, iv; assay type: ADME, organism-based, Canis lupus familiaris; parameters: dose 0.6 mg/kg, route intravenous; conditions: in vivo
[20] = Mean residence time in dog at 2.3 mg/kg, po; assay type: ADME, organism-based, Canis lupus familiaris; parameters: dose 2.3 mg/kg, route oral; conditions: in vivo
[21] = Oral bioavailability in dog at 2.3 mg/kg; assay type: ADME, organism-based, Canis lupus familiaris; conditions: in vivo
[22] = Clearance in monkey at 0.5 mg/kg, iv and 2 mg/kg, po; assay type: ADME, organism-based, Macaca mulatta; conditions: rhesus monkey, in vivo
[23] = Volume of distribution at steady state in monkey at 0.5 mg/kg, iv and 2 mg/kg, po; assay type: ADME, organism-based, Macaca mulatta; conditions: rhesus monkey, in vivo, read-out: Vdss
[24] = Mean residence time in monkey at 0.5 mg/kg, iv; assay type: ADME, organism-based, Macaca mulatta; parameters: dose 0.5 mg/kg, route intravenous; conditions: rhesus monkey, in vivo
[25] = Mean residence time in monkey at 2 mg/kg, po; assay type: ADME, organism-based, Macaca mulatta; parameters: dose 2 mg/kg, route oral; conditions: rhesus monkey, in vivo
[26] = Oral bioavailability in monkey at 2 mg/kg; assay type: ADME, organism-based, Macaca mulatta; conditions: rhesus monkey, in vivo
[27] = target: Tyrosine-protein kinase ABL1 (Homo sapiens) (UniProt P00519); assay: Inhibition of Abl1 up to 10 uM
[28] = target: RAC-gamma serine/threonine-protein kinase (Homo sapiens) (UniProt Q9Y243); assay: Inhibition of AKT3 up to 10 uM
[29] = target: RAF proto-oncogene serine/threonine-protein kinase (Homo sapiens) (UniProt P04049); assay: Inhibition of c-RAF up to 10 uM
Sequence of RAF proto-oncogene serine/threonine-protein kinase (Homo sapiens) (P04049 whole entry): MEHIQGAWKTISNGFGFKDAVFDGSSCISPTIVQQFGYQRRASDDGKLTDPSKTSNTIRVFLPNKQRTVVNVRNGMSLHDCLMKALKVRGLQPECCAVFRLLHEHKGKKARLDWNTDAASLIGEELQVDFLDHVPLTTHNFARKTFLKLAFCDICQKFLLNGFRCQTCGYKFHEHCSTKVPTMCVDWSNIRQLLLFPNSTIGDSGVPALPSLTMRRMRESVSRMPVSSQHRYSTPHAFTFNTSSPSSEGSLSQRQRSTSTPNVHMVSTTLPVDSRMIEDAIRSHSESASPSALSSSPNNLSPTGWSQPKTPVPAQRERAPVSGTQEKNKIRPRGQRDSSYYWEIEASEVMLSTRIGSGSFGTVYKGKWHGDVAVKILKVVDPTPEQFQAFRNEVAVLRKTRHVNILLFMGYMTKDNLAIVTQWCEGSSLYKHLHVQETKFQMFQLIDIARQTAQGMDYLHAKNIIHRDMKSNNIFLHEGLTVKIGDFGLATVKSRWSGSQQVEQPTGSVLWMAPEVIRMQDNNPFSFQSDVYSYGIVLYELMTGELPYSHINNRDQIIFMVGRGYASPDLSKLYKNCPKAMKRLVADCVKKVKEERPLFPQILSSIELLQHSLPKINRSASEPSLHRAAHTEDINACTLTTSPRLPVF

[30] = target: Calcium/calmodulin-dependent protein kinase type 1D (Homo sapiens) (UniProt Q8IU85); assay: Inhibition of CamK1delta up to 10 uM
[31] = target: Cyclin-dependent kinase 2/cyclin A (Homo sapiens) (UniProt P24941+P20248+P78396); assay: Inhibition of CDK2/cyclin A up to 10 uM; assay type: protein-complex assay
[32] = target: Hepatocyte growth factor receptor (Homo sapiens) (UniProt P08581); assay: Inhibition of c-Met up to 10 uM
[33] = target: Proto-oncogene tyrosine-protein kinase Src (Homo sapiens) (UniProt P12931); assay: Inhibition of c-SRC up to 10 uM
[34] = target: Epidermal growth factor receptor (Homo sapiens) (UniProt P00533); assay: Inhibition of EGFR up to 10 uM
[35] = target: Glycogen synthase kinase-3 beta (Homo sapiens) (UniProt P49841); assay: Inhibition of GSK3-beta up to 10 uM
[36] = target: Insulin receptor (Homo sapiens) (UniProt P06213); assay: Inhibition of IR up to 10 uM
[37] = target: Tyrosine-protein kinase JAK3 (Homo sapiens) (UniProt P52333); assay: Inhibition of JAK3 up to 10 uM
Sequence of Tyrosine-protein kinase JAK3 (Homo sapiens) (P52333 whole entry): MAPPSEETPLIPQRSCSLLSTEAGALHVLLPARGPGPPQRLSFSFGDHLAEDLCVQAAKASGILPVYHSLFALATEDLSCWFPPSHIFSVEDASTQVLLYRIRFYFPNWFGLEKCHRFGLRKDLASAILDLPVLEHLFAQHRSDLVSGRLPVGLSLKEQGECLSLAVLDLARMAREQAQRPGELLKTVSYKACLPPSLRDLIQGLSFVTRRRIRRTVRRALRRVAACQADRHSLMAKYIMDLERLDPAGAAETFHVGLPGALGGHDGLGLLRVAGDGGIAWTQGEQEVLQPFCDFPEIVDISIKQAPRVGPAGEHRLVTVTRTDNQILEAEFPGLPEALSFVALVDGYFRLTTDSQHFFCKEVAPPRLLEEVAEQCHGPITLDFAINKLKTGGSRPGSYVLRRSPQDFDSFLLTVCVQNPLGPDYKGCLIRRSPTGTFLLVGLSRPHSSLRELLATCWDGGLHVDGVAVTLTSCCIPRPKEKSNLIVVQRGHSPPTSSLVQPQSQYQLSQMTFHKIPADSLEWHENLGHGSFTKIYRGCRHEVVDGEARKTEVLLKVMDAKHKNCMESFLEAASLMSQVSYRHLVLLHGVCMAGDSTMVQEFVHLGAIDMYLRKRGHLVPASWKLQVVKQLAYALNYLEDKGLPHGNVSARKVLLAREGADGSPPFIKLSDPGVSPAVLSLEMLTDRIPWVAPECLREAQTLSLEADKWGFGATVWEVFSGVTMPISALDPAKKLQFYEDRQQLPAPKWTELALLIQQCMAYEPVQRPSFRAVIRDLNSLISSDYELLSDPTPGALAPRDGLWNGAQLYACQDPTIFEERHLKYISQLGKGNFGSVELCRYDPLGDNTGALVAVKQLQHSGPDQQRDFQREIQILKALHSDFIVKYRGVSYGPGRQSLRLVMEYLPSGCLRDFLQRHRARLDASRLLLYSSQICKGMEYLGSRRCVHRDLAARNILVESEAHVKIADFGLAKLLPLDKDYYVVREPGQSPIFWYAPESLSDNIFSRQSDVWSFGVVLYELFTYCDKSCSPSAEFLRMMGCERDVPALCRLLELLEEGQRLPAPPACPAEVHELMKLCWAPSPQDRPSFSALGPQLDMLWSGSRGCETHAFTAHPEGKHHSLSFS

[38] = target: Mitogen-activated protein kinase 14 (Homo sapiens) (UniProt Q16539); assay: Inhibition of p38alpha up to 10 uM
Sequence of Mitogen-activated protein kinase 14 (Homo sapiens) (Q16539 whole entry): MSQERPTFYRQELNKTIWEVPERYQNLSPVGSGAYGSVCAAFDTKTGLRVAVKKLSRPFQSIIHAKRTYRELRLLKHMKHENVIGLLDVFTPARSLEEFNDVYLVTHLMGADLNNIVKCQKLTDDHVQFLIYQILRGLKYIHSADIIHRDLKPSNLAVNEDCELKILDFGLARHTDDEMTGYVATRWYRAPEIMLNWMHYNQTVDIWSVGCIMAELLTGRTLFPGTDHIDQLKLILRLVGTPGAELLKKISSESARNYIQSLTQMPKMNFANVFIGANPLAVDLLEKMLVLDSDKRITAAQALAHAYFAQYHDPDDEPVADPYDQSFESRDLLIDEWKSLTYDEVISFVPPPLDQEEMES

[39] = target: Platelet-derived growth factor receptor beta (Homo sapiens) (UniProt P09619); assay: Inhibition of PDGFRbeta up to 10 uM
[40] = target: [Pyruvate dehydrogenase (acetyl-transferring)] kinase isozyme 1, mitochondrial (Homo sapiens) (UniProt Q15118); assay: Inhibition of PDK1 up to 10 uM
[41] = target: Protein kinase C alpha type (Homo sapiens) (UniProt P17252); assay: Inhibition of PKCalpha up to 10 uM
[42] = target: Serine/threonine-protein kinase PLK3 (Homo sapiens) (UniProt Q9H4B4); assay: Inhibition of PLK3 up to 10 uM
Sequence of Serine/threonine-protein kinase PLK3 (Homo sapiens) (Q9H4B4 whole entry, looked up): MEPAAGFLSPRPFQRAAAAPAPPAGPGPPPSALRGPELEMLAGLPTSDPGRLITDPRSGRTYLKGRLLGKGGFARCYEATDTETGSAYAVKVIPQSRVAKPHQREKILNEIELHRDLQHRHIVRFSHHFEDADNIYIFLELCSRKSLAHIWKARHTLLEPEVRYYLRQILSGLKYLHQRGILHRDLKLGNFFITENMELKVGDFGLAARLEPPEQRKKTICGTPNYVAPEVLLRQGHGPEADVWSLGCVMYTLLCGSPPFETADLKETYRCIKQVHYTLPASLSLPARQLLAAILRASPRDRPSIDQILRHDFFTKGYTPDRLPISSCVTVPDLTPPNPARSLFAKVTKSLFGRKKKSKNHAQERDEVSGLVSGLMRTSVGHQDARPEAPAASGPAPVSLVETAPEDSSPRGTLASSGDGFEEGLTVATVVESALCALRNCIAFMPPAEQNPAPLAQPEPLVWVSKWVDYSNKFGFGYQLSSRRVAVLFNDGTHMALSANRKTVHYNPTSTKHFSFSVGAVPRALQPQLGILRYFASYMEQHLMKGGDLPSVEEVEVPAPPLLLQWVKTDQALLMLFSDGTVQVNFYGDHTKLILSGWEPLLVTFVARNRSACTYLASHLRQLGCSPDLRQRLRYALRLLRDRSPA

[43] = target: Tyrosine-protein kinase SYK (Homo sapiens) (UniProt P43405); assay: Inhibition of Syk up to 10 uM
[44] = target: Angiopoietin-1 receptor (Homo sapiens) (UniProt Q02763); assay: Inhibition of Tie2 up to 10 uM
Sequence of Angiopoietin-1 receptor (Homo sapiens) (Q02763 whole entry): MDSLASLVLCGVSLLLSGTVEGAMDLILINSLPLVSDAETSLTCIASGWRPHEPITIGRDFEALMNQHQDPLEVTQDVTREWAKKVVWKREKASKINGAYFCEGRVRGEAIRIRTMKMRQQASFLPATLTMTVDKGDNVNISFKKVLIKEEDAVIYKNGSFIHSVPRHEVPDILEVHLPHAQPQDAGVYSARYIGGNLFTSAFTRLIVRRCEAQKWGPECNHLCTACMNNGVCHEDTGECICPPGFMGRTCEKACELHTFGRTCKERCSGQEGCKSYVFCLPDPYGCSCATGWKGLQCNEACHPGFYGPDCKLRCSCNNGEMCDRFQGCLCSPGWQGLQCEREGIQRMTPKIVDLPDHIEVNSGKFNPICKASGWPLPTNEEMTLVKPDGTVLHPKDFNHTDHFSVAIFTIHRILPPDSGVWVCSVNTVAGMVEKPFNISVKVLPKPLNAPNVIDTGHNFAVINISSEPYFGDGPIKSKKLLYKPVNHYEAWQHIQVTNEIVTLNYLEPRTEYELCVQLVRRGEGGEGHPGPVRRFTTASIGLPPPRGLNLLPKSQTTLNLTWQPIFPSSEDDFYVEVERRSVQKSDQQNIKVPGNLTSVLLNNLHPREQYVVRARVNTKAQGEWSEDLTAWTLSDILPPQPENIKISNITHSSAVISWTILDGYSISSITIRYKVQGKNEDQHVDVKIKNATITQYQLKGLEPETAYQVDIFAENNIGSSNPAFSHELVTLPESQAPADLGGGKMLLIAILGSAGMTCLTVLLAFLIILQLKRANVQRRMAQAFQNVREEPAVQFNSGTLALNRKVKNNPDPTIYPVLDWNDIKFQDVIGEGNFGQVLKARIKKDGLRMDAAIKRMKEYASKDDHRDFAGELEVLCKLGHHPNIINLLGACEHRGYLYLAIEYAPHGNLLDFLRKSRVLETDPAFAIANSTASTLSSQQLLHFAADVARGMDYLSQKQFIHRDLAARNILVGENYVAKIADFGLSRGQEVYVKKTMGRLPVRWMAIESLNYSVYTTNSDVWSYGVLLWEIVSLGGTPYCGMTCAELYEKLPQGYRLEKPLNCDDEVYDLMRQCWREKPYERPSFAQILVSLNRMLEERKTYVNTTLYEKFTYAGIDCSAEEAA

Cn1c(=O)c(F)c(Nc2ccc(I)cc2F)c2c(=O)n(OC[C@H](O)CO)cnc21
EC50 (A-375): 3 nM
EC50 (COLO 205): 1 nM
half-life [1]: 0.583 h
half-life [2]: 0.467 h
IC50 [3]: 3.1 nM

Cn1c(=O)c(F)c(Nc2ccc(I)cc2F)c2c(=O)n(CCO)cnc21
EC50 (A-375): 6.3 nM
EC50 (COLO 205): 3.7 nM
half-life [1]: 0.85 h
half-life [2]: 0.483 h

Cn1c(=O)c(F)c(Nc2ccc(I)cc2F)c2c(=O)n(C[C@H](O)CO)cnc21
EC50 (A-375): 3 nM
EC50 (COLO 205): 2.6 nM
half-life [1]: 3.05 h
half-life [2]: 1.52 h
IC50 [3]: 3.2 nM

Cn1c(=O)cc(Nc2ccc(I)cc2F)c2c(=O)n(CCCO)cnc21
EC50 (A-375): 23 nM
EC50 (COLO 205): 16 nM
half-life [1]: > 3.33 h
half-life [2]: 0.333 h
IC50 [3]: 4.9 nM

Cc1c(Nc2ccc(I)cc2F)c2c(=O)n(C[C@H](O)CO)cnc2n(C)c1=O
EC50 (A-375): 8 nM
EC50 (COLO 205): 13 nM
half-life [1]: > 3.33 h
half-life [2]: > 3.33 h

Cc1c(Nc2ccc(I)cc2F)c2c(=O)n(C[C@@H](O)CO)cnc2n(C)c1=O
EC50 (A-375): 7.4 nM
EC50 (COLO 205): 7.9 nM
half-life [1]: 1.95 h
half-life [2]: 1.97 h

Cn1c(=O)c(F)c(Nc2ccc(I)cc2F)c2c(=O)n(C[C@@H](O)CO)cnc21 [TAK-733]
EC50 (A-375): 3.1 nM
EC50 (COLO 205): 2.1 nM
half-life [1]: 2.38 h
half-life [2]: 2.25 h
fraction unbound [4]: 0.03
fraction unbound [5]: 0.04
inhibition (INH) [6]: Not Active
clearance [7]: 17.2 mL/min/kg
Vd [8]: 1.96 L/kg
MRT [9]: 1.9 h
MRT [10]: 4.6 h
bioavailability [11]: 67%
clearance [12]: 13.7 mL/min/kg
Vd [13]: 1.64 L/kg
MRT [14]: 2 h
MRT [15]: 11.5 h
bioavailability [16]: 71%
clearance [17]: 5.9 mL/min/kg
Vd [18]: 3.07 L/kg
MRT [19]: 8.9 h
MRT [20]: 12.9 h
bioavailability [21]: 76%
clearance [22]: 11.1 mL/min/kg
Vd [23]: 3.75 L/kg
MRT [24]: 5.8 h
MRT [25]: 23.8 h
bioavailability [26]: > 38%
inhibition [27]: inactive
inhibition [28]: inactive
inhibition [29]: inactive
inhibition [30]: inactive
inhibition [31]: inactive
inhibition [32]: inactive
inhibition [33]: inactive
inhibition [34]: inactive
inhibition [35]: inactive
inhibition [36]: inactive
inhibition [37]: inactive
inhibition [38]: inactive
inhibition [39]: inactive
inhibition [40]: inactive
inhibition [41]: inactive
inhibition [42]: inactive
inhibition [43]: inactive
inhibition [44]: inactive
IC50 [3]: 3.2 nM

Cn1c(=O)cc(Nc2ccc(I)cc2F)c2c(=O)n(C[C@@H](O)CCO)cnc21
EC50 (A-375): 479 nM
EC50 (COLO 205): 142 nM
half-life [1]: > 3.33 h
half-life [2]: 0.667 h

Cn1c(=O)c(F)c(Nc2ccc(Br)cc2F)c2c(=O)n(C[C@@H](O)CO)cnc21
EC50 (A-375): 50 nM
EC50 (COLO 205): 38 nM
half-life [1]: 3.13 h
half-life [2]: 0.817 h

C#Cc1ccc(Nc2c(F)c(=O)n(C)c3ncn(C[C@@H](O)CO)c(=O)c23)c(F)c1
EC50 (A-375): 11 nM
EC50 (COLO 205): 10 nM
half-life [1]: 0.817 h
half-life [2]: 0.55 h
IC50 [3]: 4.8 nM

CN(C)CCn1cnc2c(c(Nc3ccc(I)cc3F)cc(=O)n2C)c1=O
half-life [1]: 0.483 h
half-life [2]: 0.133 h
IC50 [3]: 740 nM

Cn1c(=O)c(F)c(Nc2ccc(I)cc2F)c2c(=O)n(C(CO)CO)cnc21
EC50 (A-375): 8 nM
EC50 (COLO 205): 3.5 nM
half-life [1]: 0.517 h
half-life [2]: 0.8 h
IC50 [3]: 3.3 nM

Cn1c(=O)cc(Nc2ccc(I)cc2F)c2c(=O)n(C[C@H](O)CO)cnc21
EC50 (A-375): 40 nM
EC50 (COLO 205): 38 nM
half-life [1]: > 3.33 h
half-life [2]: > 3.33 h

Cn1c(=O)cc(Nc2ccc(I)cc2F)c2c(=O)n(CCO)cnc21
EC50 (A-375): 60 nM
EC50 (COLO 205): 38 nM
half-life [1]: 0.617 h
half-life [2]: 0.183 h

Cc1c(Nc2ccc(I)cc2F)c2c(=O)n(CCO)cnc2n(C)c1=O
EC50 (A-375): 18 nM
EC50 (COLO 205): 9 nM
half-life [1]: > 3.33 h
half-life [2]: > 3.33 h
IC50 [3]: 4 nM

Cn1cnc2c(c(Nc3ccc(I)cc3F)cc(=O)n2C)c1=O
EC50 (A-375): 86 nM
EC50 (COLO 205): 49 nM
half-life [1]: > 3.33 h
half-life [2]: 0.217 h

Cn1c(=O)c(Cl)c(Nc2ccc(I)cc2F)c2c(=O)n(C[C@@H](O)CO)cnc21
EC50 (A-375): 25 nM
EC50 (COLO 205): 10 nM
half-life [1]: 0.367 h
half-life [2]: > 3.33 h
IC50 [3]: 5.9 nM

Cn1c(=O)cc(Nc2ccc(I)cc2F)c2c(=O)n(C[C@@H](O)CO)cnc21
EC50 (A-375): 26 nM
EC50 (COLO 205): 27 nM
half-life [1]: 0.8 h
half-life [2]: 0.417 h
